From US11166924B2, “N-methyl-d-aspartate receptor allosteric modulators and methods for their use” (Qingdao Primedicine Pharmaceutical Company, Ltd., priority 2016, dated 2021)

Key:
[1] = target: T1, GluN2A component of NMDAR currents in hippocampal slices (Mus musculus, UniProt P35436+P35438); assay: Slice recordings, GluN2A component of synaptic NMDAR currents; settings: FIG. 18
T1 construct: from tissue; host or cells: mouse hippocampal slices, CA1 pyramidal neurons
Text: 6-8 week old C57/Bl6 mice or rats underwent cervical dislocation followed by decapitation. The brain was immediately transferred to an ice cold NMDG-based cutting solution consisting of: (in mM): 120 NMDG, 2.5 KCl, 1.2 NaH2PO4, 25 NaHCO3, 1.0 CaCl2, 7.0 MgCl2, 2.4 Na-pyruvate, 1.3 Na-ascorbate, 20 D-glucose with pH adjusted to 7.35 using HCl acid (unless stated, all chemicals and drugs were purchased from Sigma or BioShop, Canada). The hippocampus was dissected out and transverse hippocampal slices (400 μm) were obtained using a manual tissue chopper (Stoelting, Wood Dale, Ill., USA). Slices recovered in a heated (30° C.) incubating chamber for 1 hr which contained ACSF composed of (in mM): 124 NaCl, 3 KCl, 1.25 NaH2PO4, 1 MgSO47H2O, 2 CaCl2), 26 NaHCO3 and 15 D-glucose which was bubbled continuously with carbogen (95% O2/5% CO2) (pH to 7.3). After 30 additional minutes at room temperature, slices were transferred to a submerged recording chamber and were perfused continuously with carbogenated ACSF (2-3 ml/min). Whole-cell recordings of CA1 pyramidal neurons were performed using the “blind” method with a MultiClamp 700B amplifier. EPSCs (excitatory post synaptic currents) were elicited by stimulating the SC pathway. For isolation of NMDAR currents, cells were voltage clamped at +40 mV. […]

GluN1/GluN2A^P79A = target: T2, GluN1/GluN2A^P79A (Rattus norvegicus, UniProt P35439+Q00959, P79A); assay: Patch clamp in HEK293 cells expressing mutant GluN1/GluN2A P79A; type: cell-based
T2 construct: expressed in transfected cells; host or cells: HEK293
Protocol: (§1) Whole cell patch-clamp recordings were performed under voltage-clamp mode using an Axopatch 200B or 1D patch-clamp amplifier (Molecular Devices). Whole-cell currents were recorded at a holding potential of −60 mV unless indicated elsewhere, and signals were filtered at 2 kHz, digitized at 10 kHz (Digidata 1322A). Recording pipettes (3-5 MΩ) were filled with intracellular solution containing (mM): CsCl 140, HEPES 10, Mg-ATP 4, QX-314 5, pH 7.20; osmolarity, 290-295 mOsm. BAPTA (10 mM) was added in the intracellular solution (unless otherwise specified). The coverslips were continuously superfused with extracellular solution containing (mM): NaCl 140, KCl 5.4, HEPES 10, CaCl2 1.3, glucose 20, pH 7.4; osmolarity, 305-315 mOsm. NMDA-induced currents were applied by NMDA through perfusion fast-step (Warner Instruments). With perfusion fast-step system, NMDA application was achieved by using a two-square barrel glass tubing and depending on the age of the cultured neurons, CNQX (10 μM), TTX (0.5 μM) or BIC (10 μM) were added in the extracellular solution to minimize the activation of ionotropic glutamate receptors and voltage-gated sodium channels, respectively. All experiments were performed at room temperature. Recordings from at least six HEK293 cells/neurons were performed for all active compounds. […]

GluN1/GluN2A^P178G = target: T3, GluN1/GluN2A^P178G (Rattus norvegicus, UniProt P35439+Q00959, P178G); assay: Patch clamp in HEK293 cells expressing mutant GluN1/GluN2A P178G; type: cell-based
T3 construct: expressed in transfected cells; host or cells: HEK293
Protocol: as §1

cortical neurons = assay: H2O2-induced cytotoxicity in cortical neurons; type: cell-based; settings: in the absence of NVP-AAM007; FIG. 17

T2 sequence (Q00959 23-1464 P79A, other chains not shown): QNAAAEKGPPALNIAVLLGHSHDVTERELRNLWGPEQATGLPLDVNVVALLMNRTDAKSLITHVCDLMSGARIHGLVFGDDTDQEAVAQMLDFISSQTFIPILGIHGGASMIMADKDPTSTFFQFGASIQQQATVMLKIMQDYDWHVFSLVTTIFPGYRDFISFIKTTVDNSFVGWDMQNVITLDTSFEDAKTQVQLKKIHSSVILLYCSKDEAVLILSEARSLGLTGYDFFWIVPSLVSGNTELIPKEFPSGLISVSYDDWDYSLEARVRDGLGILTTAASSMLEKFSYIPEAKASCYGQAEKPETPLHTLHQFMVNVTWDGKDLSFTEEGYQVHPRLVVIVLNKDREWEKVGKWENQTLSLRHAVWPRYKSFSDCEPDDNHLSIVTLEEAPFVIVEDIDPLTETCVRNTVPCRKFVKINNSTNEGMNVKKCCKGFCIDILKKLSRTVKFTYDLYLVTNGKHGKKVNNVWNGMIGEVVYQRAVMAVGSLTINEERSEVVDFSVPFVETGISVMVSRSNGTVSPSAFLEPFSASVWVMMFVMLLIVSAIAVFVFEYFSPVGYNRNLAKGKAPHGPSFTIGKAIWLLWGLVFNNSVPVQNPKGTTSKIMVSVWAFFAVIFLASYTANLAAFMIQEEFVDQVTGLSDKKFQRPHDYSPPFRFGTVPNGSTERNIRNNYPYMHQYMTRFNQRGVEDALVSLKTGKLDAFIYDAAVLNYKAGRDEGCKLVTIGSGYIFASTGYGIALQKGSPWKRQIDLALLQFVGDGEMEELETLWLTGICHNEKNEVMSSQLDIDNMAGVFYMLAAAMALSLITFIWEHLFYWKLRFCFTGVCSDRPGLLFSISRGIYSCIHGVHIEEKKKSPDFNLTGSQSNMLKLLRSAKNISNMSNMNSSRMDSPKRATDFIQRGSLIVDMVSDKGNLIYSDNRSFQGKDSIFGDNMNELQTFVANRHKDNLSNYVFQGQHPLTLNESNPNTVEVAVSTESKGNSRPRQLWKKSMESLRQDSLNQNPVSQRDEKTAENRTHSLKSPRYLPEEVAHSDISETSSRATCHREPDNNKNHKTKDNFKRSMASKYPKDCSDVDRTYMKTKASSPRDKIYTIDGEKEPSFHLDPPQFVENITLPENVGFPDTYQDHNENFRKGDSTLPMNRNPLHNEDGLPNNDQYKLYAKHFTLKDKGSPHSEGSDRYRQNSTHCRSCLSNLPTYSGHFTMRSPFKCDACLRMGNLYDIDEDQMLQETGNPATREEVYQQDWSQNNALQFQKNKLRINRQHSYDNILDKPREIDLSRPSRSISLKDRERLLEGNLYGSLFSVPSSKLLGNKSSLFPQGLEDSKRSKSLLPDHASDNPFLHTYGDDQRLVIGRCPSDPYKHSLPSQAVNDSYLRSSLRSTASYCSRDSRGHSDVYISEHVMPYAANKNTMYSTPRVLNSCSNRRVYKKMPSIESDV
T3 sequence (Q00959 23-1464 P178G, other chains not shown): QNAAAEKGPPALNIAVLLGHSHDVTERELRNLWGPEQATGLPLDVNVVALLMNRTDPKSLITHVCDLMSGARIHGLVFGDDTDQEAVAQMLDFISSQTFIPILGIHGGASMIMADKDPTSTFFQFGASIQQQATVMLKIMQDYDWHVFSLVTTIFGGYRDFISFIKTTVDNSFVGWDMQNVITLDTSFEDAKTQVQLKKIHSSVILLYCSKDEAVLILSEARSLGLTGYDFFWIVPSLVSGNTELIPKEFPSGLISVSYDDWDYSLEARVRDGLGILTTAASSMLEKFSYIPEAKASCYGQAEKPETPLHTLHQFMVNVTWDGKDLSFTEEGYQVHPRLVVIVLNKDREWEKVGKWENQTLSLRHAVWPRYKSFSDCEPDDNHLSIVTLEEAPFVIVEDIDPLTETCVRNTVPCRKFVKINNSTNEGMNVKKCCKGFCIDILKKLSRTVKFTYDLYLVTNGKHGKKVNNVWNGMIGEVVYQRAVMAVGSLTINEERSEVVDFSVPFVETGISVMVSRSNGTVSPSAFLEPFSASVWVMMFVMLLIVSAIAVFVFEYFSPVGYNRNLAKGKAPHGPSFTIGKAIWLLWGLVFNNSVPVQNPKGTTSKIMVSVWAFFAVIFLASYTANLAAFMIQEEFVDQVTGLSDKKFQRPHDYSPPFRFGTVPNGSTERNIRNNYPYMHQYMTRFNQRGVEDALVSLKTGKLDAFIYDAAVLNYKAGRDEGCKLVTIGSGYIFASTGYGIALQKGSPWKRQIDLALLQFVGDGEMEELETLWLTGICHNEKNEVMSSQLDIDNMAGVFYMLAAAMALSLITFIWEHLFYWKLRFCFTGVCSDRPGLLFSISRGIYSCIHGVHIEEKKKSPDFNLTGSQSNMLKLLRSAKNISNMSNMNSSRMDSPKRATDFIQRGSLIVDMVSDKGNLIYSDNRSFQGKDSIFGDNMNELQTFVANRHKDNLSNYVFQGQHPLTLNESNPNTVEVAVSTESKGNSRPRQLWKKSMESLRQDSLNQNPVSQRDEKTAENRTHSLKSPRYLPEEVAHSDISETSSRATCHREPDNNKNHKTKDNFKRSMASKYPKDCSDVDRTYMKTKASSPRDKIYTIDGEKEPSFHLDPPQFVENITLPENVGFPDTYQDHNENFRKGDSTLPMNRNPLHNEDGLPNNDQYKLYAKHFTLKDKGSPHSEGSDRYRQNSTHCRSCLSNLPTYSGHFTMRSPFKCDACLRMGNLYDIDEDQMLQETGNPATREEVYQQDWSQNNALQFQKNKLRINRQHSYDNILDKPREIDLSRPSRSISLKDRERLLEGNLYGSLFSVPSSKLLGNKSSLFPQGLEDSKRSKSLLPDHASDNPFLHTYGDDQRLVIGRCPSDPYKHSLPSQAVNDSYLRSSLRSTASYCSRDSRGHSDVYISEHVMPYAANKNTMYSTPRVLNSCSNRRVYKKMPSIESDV
T1 sequence (P35436 23-1464, other chains not shown): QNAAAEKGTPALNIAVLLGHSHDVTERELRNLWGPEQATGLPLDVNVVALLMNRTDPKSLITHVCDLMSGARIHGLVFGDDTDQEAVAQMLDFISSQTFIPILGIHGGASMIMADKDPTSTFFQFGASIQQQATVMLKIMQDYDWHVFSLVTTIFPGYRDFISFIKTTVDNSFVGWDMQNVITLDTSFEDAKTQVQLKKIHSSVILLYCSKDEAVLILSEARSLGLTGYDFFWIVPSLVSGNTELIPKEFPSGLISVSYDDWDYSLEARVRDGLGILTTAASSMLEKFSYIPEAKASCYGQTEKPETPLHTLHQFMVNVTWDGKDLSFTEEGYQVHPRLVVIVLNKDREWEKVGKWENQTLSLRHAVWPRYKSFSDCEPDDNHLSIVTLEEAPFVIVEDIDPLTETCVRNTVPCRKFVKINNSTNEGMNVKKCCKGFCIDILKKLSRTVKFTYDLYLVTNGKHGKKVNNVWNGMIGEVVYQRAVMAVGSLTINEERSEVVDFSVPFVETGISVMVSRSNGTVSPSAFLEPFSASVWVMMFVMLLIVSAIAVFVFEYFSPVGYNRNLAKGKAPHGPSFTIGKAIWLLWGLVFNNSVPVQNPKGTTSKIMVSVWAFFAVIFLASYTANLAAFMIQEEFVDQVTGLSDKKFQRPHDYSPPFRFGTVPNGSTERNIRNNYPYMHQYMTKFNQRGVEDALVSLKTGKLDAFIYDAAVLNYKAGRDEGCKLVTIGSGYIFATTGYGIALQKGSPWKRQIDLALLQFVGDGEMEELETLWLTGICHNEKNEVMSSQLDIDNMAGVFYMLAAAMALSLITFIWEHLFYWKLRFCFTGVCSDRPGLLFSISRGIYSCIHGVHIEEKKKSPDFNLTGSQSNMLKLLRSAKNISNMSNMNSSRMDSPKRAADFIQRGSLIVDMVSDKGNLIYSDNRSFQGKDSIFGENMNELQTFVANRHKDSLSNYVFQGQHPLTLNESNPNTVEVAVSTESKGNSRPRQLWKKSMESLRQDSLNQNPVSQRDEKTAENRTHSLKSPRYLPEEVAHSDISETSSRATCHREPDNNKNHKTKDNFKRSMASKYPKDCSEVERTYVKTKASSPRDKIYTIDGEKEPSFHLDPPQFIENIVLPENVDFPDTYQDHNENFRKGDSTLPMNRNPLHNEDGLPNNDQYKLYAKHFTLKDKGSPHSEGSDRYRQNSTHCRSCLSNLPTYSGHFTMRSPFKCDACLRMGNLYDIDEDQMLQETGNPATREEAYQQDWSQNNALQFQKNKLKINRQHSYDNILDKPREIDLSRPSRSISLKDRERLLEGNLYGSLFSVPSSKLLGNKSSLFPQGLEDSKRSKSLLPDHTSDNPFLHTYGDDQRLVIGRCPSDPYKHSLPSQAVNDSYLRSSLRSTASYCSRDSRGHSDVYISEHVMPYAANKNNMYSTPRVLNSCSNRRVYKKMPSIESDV

Structure (SMILES): CCOc1cc(Cl)c(Cl)c(/C=N/NC(=O)c2ccccc2Br)c1O [Npam43, (E)-2-bromo-N′-(2,3-dichloro-5-ethoxy-6-hydroxybenzylidene)benzohydrazide]
- Effect on GluN2A component of NMDAR currents [1]: selectively potentiated the GluN2A component of NMDAR currents
- Relative potentiation (GluN1/GluN2A^P79A; Table 3): 99.3 ± 2.8%
- Net Difference potentiation (GluN1/GluN2A^P79A; normalized to wild-type): −52.5 ± 0.20%
- Relative potentiation (GluN1/GluN2A^P178G; Table 3): 95.5 ± 3.8%
- Net Difference potentiation (GluN1/GluN2A^P178G; normalized to wild-type): −54.3 ± 0.42%
- H2O2-induced non-NMDAR dependent cytotoxicity (cortical neurons): reduced
